Experimental data from patent US20260294883A1, “PHARMACEUTICAL COMPOSITION FOR THE TREATMENT OF POST-TRAUMATIC STRESS SYNDROME” (KINNOV THERAPEUTICS, priority 2022, published 2026).
Counter-ions that a name gives are not always drawn.

Assays:
[1] = Azevedo et al., Neuropharmacology 164 (2020) 107912; cited from earlier work
[2] = conditioned fear test, Example 1 (freezing index 3 days after conditioning); format: in vivo, rodents; conditions: for p (freezing index, versus control group) / Freezing index / Freezing index, % vs witness: 3 days after conditioning, n = 10; for Freezing index: Mean ± SEM, witnesses 62.12 ± 9.93; for Freezing index, % vs witness: witnesses 100.00
Protocol: (§1) The conditioned fear test in rodents is recognized as a relevant preclinical model for the study of post-traumatic stress disorders.
(§2) During this test, animals are placed for a 4.5-minute conditioning session in a square box with a stainless steel mesh floor connected to a shock generator.
(§3) A conditioned stimulus (CS) consisting of a sound (80 dB, 2800 Hz, 30 seconds) is presented twice (at 1.5 min and then at 3.5 min).
(§4) An unconditioned stimulus consisting of an electric shock to the paws is delivered at the end of each CS (2 seconds, 0.6 mA).
(§5) The animals were then subjected to memory test sessions of the stressful event on different days after the session of packaging. The sessions of test of memorization (duration of 6 min) comprise a first period of 3 minutes without none CS presentation (period CS−) followed by a second 3 minute period during which the CS is presented (period CS+).
(§6) The sound stimulus alone triggers conditioned fear behavior. In rodents, this behavior is manifested by a prostrate attitude, an immobility behavior (i.e. «freezing») that is distinguished from the animal's exploratory behavior when placed in an enclosure for a short period.
(§7) The analyzed data are the time of immobility during the period CS− and during the period CS+. The freezing index is defined as the difference in immobility time between the period with the sound stimulus and the period without the sound. Therefore, the higher this index, the greater the post-traumatic stress state.
(§8) The «sham» group received no shock. The treatments were administered immediately after the conditioning session, and then 30 minutes before each conditioned fear session (no shock, but with the conditioned stimulus).
(§9) This test measures the effect of stress and its environment and its memorization (i.e. extinction).

[3] = conditioned fear test, Example 3 (comparison with paroxetine); format: in vivo, rodents; conditions: for Freezing index Day 1 / Freezing index Day 3 / Freezing index Day 4: n = 10; for Freezing index Day 1: witnesses 53.3 ± 5.7; for Freezing index Day 3: witnesses 38.1 ± 8.7; for Freezing index Day 4: Day 4, treatment stopped after day 3, witnesses 56.2 ± 9.8
Protocol: as §1, §2, §3, §4, §5, §6, §7, §8, §9
The protocol is identical to that of Example 1 above. In this example, the conditioned fear sessions and the freezing measurement are carried out on days 1, 3 and 4 after the conditioning session. The treatment is stopped after day 3, so that during the 4th observation session, no treatment is administered.

## COc1ccccc1N1CCN(CCn2cnc3ccccc3c2=O)CC1 [ACH-000029]
[1]
  efficacy versus prazosin alone: more effective than prazosin alone

## CN1CCC(=C2c3ccccc3C=Cc3ccccc32)CC1 [Cyproheptadine, 4-(5-H-dibenzo[a,d]cyclohepten-5-ylidene)-1-methylpiperidine hydrochloride]
[2]; 0.5 mg/kg
  p (freezing index, versus control group): ns
  Freezing index: 38.68 ± 5.84 s
  Freezing index, % vs witness: 62.28%

## Fc1ccc([C@@H]2CCNC[C@H]2COc2ccc3c(c2)OCO3)cc1 [Paroxetine]
[3]; 4 mg/kg
  Freezing index Day 1: 64.5 s
  Freezing index Day 3: 44.3 s
  Freezing index Day 4: 38.9 s
[3]; 8 mg/kg
  Freezing index Day 1: 51.3 s
  Freezing index Day 3: 33.1 s
  Freezing index Day 4: 50.3 s
[3]; Example 3 conclusion
  effect on the memory component and impact of the stressful event / anxious reaction, in words: no significant effect

## COc1cc2nc(N3CCN(C(=O)c4ccco4)CC3)nc(N)c2cc1OC [Prazosin, 2-[4-(2-furoyl)piperazin-1-yl]-6,7-dimethoxyquinazolin-4-amine]
[2]; 0.5 mg/kg
  p (freezing index, versus control group): ns
  Freezing index: 41.97 ± 5.82 s
  Freezing index, % vs witness: 67.57%
[2]; 1 mg/kg
  p (freezing index, versus control group): ns
  Freezing index: 35.29 ± 12.22 s
  Freezing index, % vs witness: 56.80%
[2]; Example 1 conclusion, conditioned fear test
  effect on post-traumatic stress syndrome, in words: does not allow the treatment of post-traumatic stress syndrome
